# Data published in patent publication US12729231B2, “Fusion protein having triple activity and use thereof” (SHANGHAI MINWEI BIOTECHNOLOGY CO., LTD, priority 2023, dated 2026).
# B1: natural FGF21: Fibroblast growth factor 21, wild type, SEQ ID NO 1 (protein)
# chain: HPIPDSSPLLQFGGQVRQRYLYTDDAQQTEAHLEIREDGTVGGAADQSPESLLQLKALKPGVIQILGVKTSRFLCQRPDGALYGSLHFDPEACSFRELLLEDGYNVYQSEAHGLPLHLPGNKSPHRDPAPRGPARFLPLPGLPPALPEPPGILAPQPPDVGSSDPLSMVGPSQGRSPSYAS
# modifications: Wild type FGF21
# B2: FGF21 L98R, P171G, A180E: FGF21 with the L98R, P171G, and A180E mutations, background literature variant (protein, UniProt Q9NSA1 29-209, looked up, variant L98R P171G A180E)
# Fibroblast growth factor 21: HPIPDSSPLLQFGGQVRQRYLYTDDAQQTEAHLEIREDGTVGGAADQSPESLLQLKALKPGVIQILGVKTSRFLCQRPDGALYGSLHFDPEACSFRERLLEDGYNVYQSEAHGLPLHLPGNKSPHRDPAPRGPARFLPLPGLPPALPEPPGILAPQPPDVGSSDPLSMVGGSQGRSPSYES
# Assays:
# DIO mice = assay: body weight reduction by multiple subcutaneous injections in DIO mice; assay type: in vivo; conditions: 30 nmol/kg subcutaneous twice a week for 5 weeks, mean of 6 mice
# Protocol: 7-week-old C57BL/6Nju mice were fed with a high-fat diet (of about 20% protein and about 60% fat) for 12 weeks for modeling. Feeding conditions: 12 hours of light and 12 hours of darkness cycle every day, ad libitum feeding, temperature 20-25° C., relative humidity 40-70%, ventilation frequency of 10-15 times/hour. According to body weight, water consumption, and food intake, the mice were randomly divided into groups the day before administration. […] Subcutaneous injection treatment was administered twice a week for 5 consecutive weeks, for a total of 10 administrations. After the administration, the body weight, OGTT, body fat ratio, blood lipids and liver function of the mice were measured. The data are shown as mean±standard deviation, and statistically analyzed by One-Way ANOVA.
# [1] = cynomolgus macaques; cited from earlier work
Molecule,ALT (DIO mice; DIO mice) [U/L],AST (DIO mice; DIO mice) [U/L],Blood glucose (fasting) (DIO mice; DIO mice) [mmol/L],LDL-C (plasma low-density lipoprotein cholesterol) (DIO mice; DIO mice) [mmol/L],TC (plasma total cholesterol) (DIO mice; DIO mice) [mmol/L],% Change in weight since inception (DIO mice; DIO obese mice) [%],half-life in vivo [1]
Tirzepatide,19.000,54.683,7.2,0.423,3.923,−22.55,–
B1,–,–,–,–,–,–,2 to 3 h
B2,–,–,–,–,–,–,about 70 hours
